What all share (format): in vivo
Assay [1] relates to Amaranthus retoflexus (AMARE). Briefly: Example B post-emergence herbicidal activity, glasshouse pot test. The conditions noted are these: Amaranthus retroflexus, 312 h, rate 250 g/ha, evaluated after 13 days, read-out: Post-emergence activity AMARE (100=total damage to plant; 0=no damage to plant). The method, then:
(§1) Seeds of a variety of test species were sown in standard soil in pots. After cultivation for one day (pre-emergence) or after 8 days cultivation (post-emergence) under controlled conditions in a glasshouse (at 24/16° C., day/night; 14 hours light; 65% humidity), the plants were sprayed with an aqueous spray solution derived from the formulation of the technical active ingredient in acetone/water (50:50) solution containing 0.5% Tween 20 (polyoxyethelyene sorbitan monolaurate, CAS RN 9005-64-5). The test plants were then grown in a glasshouse under controlled conditions in a glasshouse (at 24/16° C., day/night; 14 hours light; 65% humidity) and watered twice daily. After 13 days for pre and post-emergence, the test was evaluated (100=total damage to plant; 0=no damage to plant). Alopecurus myosuroides (ALOMY), Avena fatua (AVEFA), Setaria faberi (SETFA), Echinochloa crus-galli (ECHCG) and Amaranthus retoflexus (AMARE)

The subject of assay [2] is Alopecurus myosuroides (ALOMY). Described as above. To be noted: 312 h, rate 250 g/ha, evaluated after 13 days, read-out: Post-emergence activity ALOMY (100=total damage to plant; 0=no damage to plant). As for the experimental part: as §1
The subject of assay [3] is Avena fatua (AVEFA). Described as above. To be noted: 312 h, rate 250 g/ha, evaluated after 13 days, read-out: Post-emergence activity AVEFA (100=total damage to plant; 0=no damage to plant). As for the experimental part:
as §1

The test system of assay [4] is Echinochloa crus-galli (ECHCG). Described as above. The conditions noted are these: 312 h, rate 250 g/ha, evaluated after 13 days, read-out: Post-emergence activity ECHCG (100=total damage to plant; 0=no damage to plant). As for the experimental part: as §1
Assay [5] concerns Setaria faberi (SETFA). The assay is described as above. To be noted: 312 h, rate 250 g/ha, evaluated after 13 days, read-out: Post-emergence activity SETFA (100=total damage to plant; 0=no damage to plant). The method, then:
as §1

The subject of assay [6] is Amaranthus retoflexus (AMARE). Briefly: Example B pre-emergence herbicidal activity, glasshouse pot test. To be noted: Amaranthus retroflexus, 312 h, Rate 250 g/ha, evaluated after 13 days, read-out: Pre-Emergence Activity AMARE (100=total damage to plant; 0=no damage to plant). As for the experimental part: as §1
The subject of assay [7] is Alopecurus myosuroides (ALOMY). The assay is described as above. The conditions noted are these: 312 h, Rate 250 g/ha, evaluated after 13 days, read-out: Pre-Emergence Activity ALOMY (100=total damage to plant; 0=no damage to plant). The method, then:
as §1

Assay [8] concerns Avena fatua (AVEFA). Described as above. To be noted: 312 h, Rate 250 g/ha, evaluated after 13 days, read-out: Pre-Emergence Activity AVEFA (100=total damage to plant; 0=no damage to plant). As for the experimental part: as §1
Assay [9] relates to Echinochloa crus-galli (ECHCG). The assay is described as above. The conditions noted are these: 312 h, Rate 250 g/ha, evaluated after 13 days, read-out: Pre-Emergence Activity ECHCG (100=total damage to plant; 0=no damage to plant). The method, then: as §1
Assay [10] concerns Setaria faberi (SETFA). The assay is described as above. To be noted: 312 h, Rate 250 g/ha, evaluated after 13 days, read-out: Pre-Emergence Activity SETFA (100=total damage to plant; 0=no damage to plant). As for the experimental part:
as §1

With `Cc1ccc(-c2nc(C3C(=O)[C@@H]4[C@H](C3=O)[C@H]3CC[C@@H]4O3)c(C)s2)cc1` (some centres unmarked) [Compound T20], the pest or weed control at 250 g/ha worked out at 0% in assay [1]; 90% in assay [2]; 100% in the assay on Avena fatua (AVEFA) [3]; 100% in [4]; 100% in the assay on Setaria faberi (SETFA) [5]; 0% in assay [6]. Further, the pest or weed control at 250 g/ha amounted to 50% in assay [7], 60% in the assay on Avena fatua (AVEFA) [8], 70% in assay [9] and 80% in the assay with Setaria faberi (SETFA) [10].

Turning to `CCc1sc(-c2ccc(Br)cc2)nc1C1C(=O)[C@@H]2[C@H](C1=O)[C@H]1CC[C@@H]2O1` (some centres unmarked) [Compound T29], the pest or weed control at 250 g/ha in assay [1] was 0%; in assay [2], 100%; with Avena fatua (AVEFA) [3], 100%; in [4], 100%; in the assay on Setaria faberi (SETFA) [5], 100%; in assay [6], 20%. The pest or weed control at 250 g/ha stood at 50% in assay [7], 90% with Avena fatua (AVEFA) [8], 90% in assay [9] and 90% with Setaria faberi (SETFA) [10].

As for `Cc1sc(-c2ccc(Cl)c(Cl)c2)nc1C1C(=O)[C@@H]2[C@H](C1=O)[C@H]1CC[C@@H]2O1` (some centres unmarked) [Compound T31], the pest or weed control at 250 g/ha in assay [1] came out at 0%; in assay [2], 60%; with Avena fatua (AVEFA) [3], 50%; in assay [4] it was 80%; in the assay with Setaria faberi (SETFA) [5], 70%; in [6], 20%. In addition, the pest or weed control at 250 g/ha was 60% in [7], 70% with Avena fatua (AVEFA) [8], 90% in [9] and 90% in the assay on Setaria faberi (SETFA) [10].

For the molecule `Cc1sc(-c2cccs2)nc1C1C(=O)[C@@H]2[C@H](C1=O)[C@H]1CC[C@@H]2O1` (some centres unmarked) [Compound T32], the pest or weed control at 250 g/ha in assay [1] is 0%; in assay [2], 0%; in the assay on Avena fatua (AVEFA) [3], 0%; in [4], 30%; with Setaria faberi (SETFA) [5], 70%; in assay [6], 0%. The pest or weed control at 250 g/ha in [7] came out at 0%; with Avena fatua (AVEFA) [8], 0%; in [9], 0%; with Setaria faberi (SETFA) [10] it was 40%.

As for `Cc1sc(-c2ccc(I)cc2)nc1C1C(=O)[C@@H]2[C@H](C1=O)[C@H]1CC[C@@H]2O1` (some centres unmarked) [Compound T33], the pest or weed control at 250 g/ha in assay [1] was 60%; in assay [2], 100%; with Avena fatua (AVEFA) [3], 100%; in assay [4], 100%; in the assay with Setaria faberi (SETFA) [5], 100%; in assay [6], 0%. The pest or weed control at 250 g/ha in assay [7] worked out at 90%; in the assay on Avena fatua (AVEFA) [8], 0%; in assay [9], 100%; in the assay with Setaria faberi (SETFA) [10], 100%.

In the case of `CCc1sc(-c2ccc(Br)cc2C)nc1C1C(=O)[C@@H]2[C@H](C1=O)[C@H]1CC[C@@H]2O1` (some centres unmarked) [Compound T35], the pest or weed control at 250 g/ha amounted to 0% in [1]; 100% in assay [2]; 100% with Avena fatua (AVEFA) [3]; 100% in [4]; 100% in the assay on Setaria faberi (SETFA) [5]; 0% in assay [6]. Besides, the pest or weed control at 250 g/ha (in [7]; in the assay on Avena fatua (AVEFA) [8]; in [9]; in the assay with Setaria faberi (SETFA) [10]) was 100% each time.

With `Cc1sc(-c2ccc(Br)cc2F)nc1C1C(=O)[C@@H]2[C@H](C1=O)[C@H]1CC[C@@H]2O1` (some centres unmarked) [Compound T36], the pest or weed control at 250 g/ha in [1] amounted to 30%; in assay [2] it was 100%; in the assay with Avena fatua (AVEFA) [3] it was 100%; in assay [4], 100%; with Setaria faberi (SETFA) [5] it was 100%; in assay [6], 0%. In addition, the pest or weed control at 250 g/ha came to 90% in assay [7], 80% in the assay with Avena fatua (AVEFA) [8], 100% in assay [9] and 100% with Setaria faberi (SETFA) [10].

For the molecule `Cc1sc(-c2ccc(Cl)s2)nc1C1C(=O)[C@@H]2[C@H](C1=O)[C@H]1CC[C@@H]2O1` (some centres unmarked) [Compound T37], the pest or weed control at 250 g/ha in [1] turned out to be 0%; in assay [2] it was 50%; in the assay on Avena fatua (AVEFA) [3] it was 10%; in assay [4], 90%; in the assay on Setaria faberi (SETFA) [5], 90%; in [6], 0%. The pest or weed control at 250 g/ha in [7] was 30%; in the assay on Avena fatua (AVEFA) [8], 0%; in assay [9], 40%; in the assay on Setaria faberi (SETFA) [10], 90%.

With `Cc1sc(-c2ccc(Br)cn2)nc1C1C(=O)[C@@H]2[C@H](C1=O)[C@H]1CC[C@@H]2O1` (some centres unmarked) [Compound T38], the pest or weed control at 250 g/ha in assay [1] is 0%; in assay [2], 90%; in the assay on Avena fatua (AVEFA) [3] it was 90%; in [4], 100%; in the assay with Setaria faberi (SETFA) [5] it was 100%; in [6], 0%. Further, the pest or weed control at 250 g/ha in assay [7] worked out at 0%; in the assay with Avena fatua (AVEFA) [8], 0%; in assay [9] it was 40%; in the assay on Setaria faberi (SETFA) [10] it was 90%.

As for `Cc1cc(Br)ccc1-c1nc(C2C(=O)[C@@H]3[C@H](C2=O)[C@H]2CC[C@@H]3O2)c(C)s1` (some centres unmarked) [Compound T39], the pest or weed control at 250 g/ha in [1] stood at 0%; in assay [2], 100%; in the assay with Avena fatua (AVEFA) [3] it was 100%; in [4], 100%; in the assay with Setaria faberi (SETFA) [5] it was 100%; in assay [6] it was 0%. Moreover, the pest or weed control at 250 g/ha came out at 70% in assay [7], 90% with Avena fatua (AVEFA) [8], 80% in assay [9] and 90% in the assay with Setaria faberi (SETFA) [10].

Consider `CCc1sc(COc2ccc(Cl)cc2)nc1C1C(=O)[C@@H]2[C@H](C1=O)[C@H]1CC[C@@H]2O1` (some centres unmarked) [Compound T40], for which the pest or weed control at 250 g/ha came out at 0% in [1]; 100% in assay [2]; 70% in the assay on Avena fatua (AVEFA) [3]; 100% in assay [4]; 100% in the assay with Setaria faberi (SETFA) [5]; 0% in assay [6]. The pest or weed control at 250 g/ha is 90% in [7], 40% in the assay with Avena fatua (AVEFA) [8], 100% in [9] and 100% with Setaria faberi (SETFA) [10].

The values are drawn from US8530667B2, “Herbicides” (Syngenta Limited, priority 2007, dated 2013).
